What all share (assay type): functional
The test system of test [1] is Mycobacterium tuberculosis. As to the kind of experiment: Ratio of compound MIC over ethambutol MIC for Mycobacterium tuberculosis H37Rv.
Test [2] deals with Mycobacterium tuberculosis. Description: Antimycobacterial activity against Mycobacterium tuberculosis H37Rv by agar dilution method. Background: In agar dilution, organisms are placed on agar that contains the substance at set levels.
For test [3], the system named is Mycobacterium tuberculosis. As to the kind of experiment: Ratio of compound MIC over pyrazinamide MIC for Mycobacterium tuberculosis H37Rv.

In brackets after ≈: the same amount, converted by molar mass.

The term MIC denotes the least concentration at which growth counts as inhibited. A low value points to inhibition by little substance. With `CN1CCC2(CN(N=O)CCC2=O)C12C(=O)Nc1ccc(Br)cc12` (stereo not drawn), the Ratio in test [1] came out at 3.86; in test [3] it was 25.64. This molecule also showed an MIC in test [2] of 1.98 µM (≈ 0.779 µg/mL).

`O=C1Nc2ccc(Cl)cc2C12C1CCCN1C1(C(=O)Nc3ccc(Cl)cc31)C1CCCN12` (stereo not drawn) displayed an MIC in test [2] of 26.6 µM (≈ 12.5 µg/mL). Still for that read-out and setting: with `NNC(=O)c1ccncc1` [ISONIAZID] the figure was 0.36 µM (≈ 0.0494 µg/mL); with `O=C1Nc2ccccc2C12C1CCCN1C1(C(=O)Nc3ccccc31)C1CCCN12` (stereo not drawn), 125 µM (≈ 50 µg/mL); with `CN1CCC2(CCCCC2=O)C12C(=O)Nc1ccc(Cl)cc12` (stereo not drawn), 39.2 µM (≈ 12.5 µg/mL). Turning to `CC(C)c1cccc2c1NC(=O)C21N(C)CCC12CCCC2=O` (stereo not drawn), 160 µM (≈ 50 µg/mL) was the least that counted as inhibitory in test [2] (MIC). The same measure, in the same setting: with `Cc1ccc2c(c1)C1(NC(c3ccccc3)C(c3ccccc3)C13CN(c1ccccc1)CCC3=O)C(=O)N2` (stereo not drawn) the figure was 23.7 µM (≈ 12.2 µg/mL).

`Cc1ccc2c(c1)C1(C(=O)N2)C2CCCN2C2(C(=O)Nc3ccc(C)cc32)C2CCCN21` (stereo not drawn) gave an MIC in test [2] of 29.2 µM (≈ 12.5 µg/mL). `Cc1ccc2c(c1)C1(C(=O)N2)N(C)CCC12CCCCCC2=O` (stereo not drawn) had an MIC in test [2] of 40 µM (≈ 12.5 µg/mL). Regarding `O=C1Nc2ccccc2C12NC(c1ccccc1)C(c1ccccc1)C21CCCCC1=O` (stereo not drawn), in test [2], the MIC stood at 118 µM (≈ 50 µg/mL).

In the case of `CN1CCC2(CN(N=O)CCC2=O)C12C(=O)Nc1ccc(Cl)cc12` (stereo not drawn), the MIC in test [2] is 4.47 µM (≈ 1.56 µg/mL). `CC(C)c1cccc2c1NC(=O)C21N(C)CCC12CN(C)CCC2=O` (stereo not drawn) had an MIC in test [2] of 36.6 µM (≈ 12.5 µg/mL). The same measure, in the same setting: with `CN1CCC2(CCCCCC2=O)C12C(=O)Nc1ccc(Cl)cc12` (stereo not drawn) the figure was 18.8 µM (≈ 6.25 µg/mL); with `CN1CCC2(CCCCCC2=O)C12C(=O)Nc1ccc(Br)cc12` (stereo not drawn), 4.13 µM (≈ 1.56 µg/mL). On the same count and under the same terms, the same measure for `CC(C)c1cccc2c1NC(=O)C21NC(c2ccccc2)C(c2ccccc2)C12CN(c1ccccc1)CCC2=O` (stereo not drawn): 22.5 µM (≈ 12.2 µg/mL); for `CN1CCC2(CCCC2=O)C12C(=O)Nc1ccc(Cl)cc12` (stereo not drawn): 41 µM (≈ 12.5 µg/mL); for `Cc1ccc2c(c1)C1(C(=O)N2)N(C)CCC12CN(N=O)CCC2=O` (stereo not drawn): 4.75 µM (≈ 1.56 µg/mL).

For `NC(=O)c1cnccn1` [PYRAZINAMIDE], the MIC in test [2] came out at 50.8 µM (≈ 6.25 µg/mL). Same read-out and setting: with `O=C1Nc2ccc(Br)cc2C12C1CCCN1C1(C(=O)Nc3ccc(Br)cc31)C1CCCN12` (stereo not drawn) the figure was 5.61 µM (≈ 3.13 µg/mL); with `O=C1Nc2ccc(Br)cc2C12NC(c1ccccc1)C(c1ccccc1)C21CN(c2ccccc2)CCC1=O` (stereo not drawn), 10.6 µM (≈ 6.1 µg/mL).

`CC(C)c1cccc2c1NC(=O)C21NC(c2ccccc2)C(c2ccccc2)C12CN(C)CCC2=O` (stereo not drawn) returned an MIC in test [2] of 26.1 µM (≈ 12.5 µg/mL). Still for that read-out and setting: with `Cc1ccc2c(c1)C1(C(=O)N2)N(C)CCC12CN(C)CCC2=O` (stereo not drawn) the figure was 19.9 µM (≈ 6.25 µg/mL); with `CC(C)c1cccc2c1NC(=O)C21N(C)CCC12CN(N=O)CCC2=O` (stereo not drawn), 8.78 µM (≈ 3.13 µg/mL). Molecule `CN1CCC(=O)C2(CCN(C)C23C(=O)Nc2ccc(Br)cc23)C1` (stereo not drawn) gave an MIC in test [2] of 33 µM (≈ 12.5 µg/mL). `CC[C@@H](CO)NCCN[C@@H](CC)CO` [ETHAMBUTOL] came in with an MIC in test [2] of 7.64 µM (≈ 1.56 µg/mL).

`CN1CCC2(CCCCC2=O)C12C(=O)Nc1ccc(Br)cc12` (stereo not drawn) yielded an MIC in test [2] of 4.29 µM (≈ 1.56 µg/mL). Consider `Cc1ccc2c(c1)C1(C(=O)N2)N(C)CCC12CCCCC2=O` (stereo not drawn), for which the MIC in test [2] was 41.9 µM (≈ 12.5 µg/mL). Same read-out and setting: the same measure for `Cc1ccc2c(c1)C1(NC(c3ccccc3)C(c3ccccc3)C13CN(C)CCC3=O)C(=O)N2` (stereo not drawn): 55.4 µM (≈ 25 µg/mL). Regarding `Cc1ccc2c(c1)C1(NC(c3ccccc3)C(c3ccccc3)C13CCCCC3=O)C(=O)N2` (stereo not drawn), the MIC in test [2] turned out to be 115 µM (≈ 50 µg/mL).

`CC(C)c1cccc2c1NC(=O)C21N(C)CCC12CCCCC2=O` (stereo not drawn) gave an MIC in test [2] of 38.3 µM (≈ 12.5 µg/mL). As for `O=C1Nc2ccc(Br)cc2C12NC(c1ccccc1)C(c1ccccc1)C21CCCCC1=O` (stereo not drawn), in test [2], the MIC came to 6.24 µM (≈ 3.13 µg/mL).

In test [2], `CC(C)c1cccc2c1NC(=O)C21N(C)CCC12CCCCCC2=O` (stereo not drawn) had an MIC of 73.4 µM (≈ 25 µg/mL). Same read-out and setting: with `CN1CCC(=O)C2(C1)C(c1ccccc1)C(c1ccccc1)NC21C(=O)Nc2ccc(Br)cc21` (stereo not drawn) the figure was 6.06 µM (≈ 3.13 µg/mL); with `CN1CCC2(CCCC2=O)C12C(=O)Nc1ccc(Br)cc12` (stereo not drawn), 8.96 µM (≈ 3.13 µg/mL).

In turn, `O=C1Nc2ccc(Cl)cc2C12NC(c1ccccc1)C(c1ccccc1)C21CCCCC1=O` (stereo not drawn) came in with an MIC in test [2] of 13.7 µM (≈ 6.25 µg/mL).

Consider `CN1CCC(=O)C2(CCN(C)C23C(=O)Nc2ccc(Cl)cc23)C1` (stereo not drawn), for which inhibition of growth in test [2] (MIC) required 37.5 µM (≈ 12.5 µg/mL). The molecule `O=C1Nc2ccc(Cl)cc2C12NC(c1ccccc1)C(c1ccccc1)C21CN(c2ccccc2)CCC1=O` (stereo not drawn) yielded an MIC in test [2] of 22.8 µM (≈ 12.2 µg/mL). Take `CC(C)c1cccc2c1NC(=O)C21NC(c2ccccc2)C(c2ccccc2)C12CCCCC2=O` (stereo not drawn): in test [2], inhibition of growth (MIC) required 13.4 µM (≈ 6.25 µg/mL). The same measure, in the same setting: with `CN1CCC(=O)C2(C1)C(c1ccccc1)C(c1ccccc1)NC21C(=O)Nc2ccc(Cl)cc21` (stereo not drawn) the figure was 26.5 µM (≈ 12.5 µg/mL); with `O=C1Nc2ccccc2C12NC(c1ccccc1)C(c1ccccc1)C21CCCC1=O` (stereo not drawn), 61.2 µM (≈ 25 µg/mL); with `CC(C)c1cccc2c1NC(=O)C21NC(c2ccccc2)C(c2ccccc2)C12CCCC2=O` (stereo not drawn), 27.7 µM (≈ 12.5 µg/mL).
